Test results: paper PMC4510645, “Discovery of intramolecular trans-sialidases in human gut microbiota suggests novel mechanisms of mucosal adaptation” (Nature Communications, 2015)

What was measured:
RgNanH [1] = biological target: T1, RgNanH (Mediterraneibacter gnavus (Ruminococcus gnavus), UniProt A7B557); assay: Inhibition of RgNanH activity against 4MU-Neu5Ac by neuraminidase inhibitors; type: biochemical, Ruminococcus gnavus ATCC 29149; conditions: 4MU-Neu5Ac 0.51 mM, 1 nM enzyme; Neu5Ac 0-0.3 mM, Lac 0-1.5 mM; pH 6.5, 37 °C
T1 sequence (A7B557 26-723): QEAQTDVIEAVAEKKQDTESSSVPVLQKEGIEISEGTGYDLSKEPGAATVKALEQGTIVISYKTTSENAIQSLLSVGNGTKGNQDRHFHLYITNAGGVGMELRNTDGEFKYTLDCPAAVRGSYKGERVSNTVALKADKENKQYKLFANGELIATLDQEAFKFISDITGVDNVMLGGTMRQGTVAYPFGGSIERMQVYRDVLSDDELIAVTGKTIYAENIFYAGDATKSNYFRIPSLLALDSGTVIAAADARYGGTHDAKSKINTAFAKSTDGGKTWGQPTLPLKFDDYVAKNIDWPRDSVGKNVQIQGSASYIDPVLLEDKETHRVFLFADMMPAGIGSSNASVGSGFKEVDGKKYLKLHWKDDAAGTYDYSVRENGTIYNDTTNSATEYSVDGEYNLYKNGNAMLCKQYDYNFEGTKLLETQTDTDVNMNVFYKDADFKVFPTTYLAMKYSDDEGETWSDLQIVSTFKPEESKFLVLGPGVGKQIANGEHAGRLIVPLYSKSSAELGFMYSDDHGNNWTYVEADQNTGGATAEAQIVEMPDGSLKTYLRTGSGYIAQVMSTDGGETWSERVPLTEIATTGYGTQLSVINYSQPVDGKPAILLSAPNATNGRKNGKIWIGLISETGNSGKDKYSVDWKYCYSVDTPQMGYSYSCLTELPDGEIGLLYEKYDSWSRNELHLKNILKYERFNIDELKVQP
Method: Figure 1 Kinetic analysis of the hydrolysis of sialylated substrates by RgNanH in presence or absence of inhibitors. Substrate (a) 4MU-Neu5Ac or (b) PNP-Neu5Ac was incubated with RgNanH ([…] and 0.43 nM, respectively) at 37 °C, pH 6.5 and the release of product measured using a plate reader. (c) Inhibition of RgNanH (1.00 nM) incubated with 4MU-Neu5Ac (0.51 mM) by zanamivir (●), Neu5Ac2en (▪), siastatin B (▴) and OC (♦), the rates are normalized to a % of the uninhibited rate. [I] is the inhibitor concentration. (d) 3′SL was incubated with RgNanH (2.25 nM) and the release of product measured by HPAEC-PAD. Experiments were done at least in duplicate (usually triplicate) and the error bars show the s.e.m.
The purified enzymes were incubated with the substrate in buffer made from 20 mM Na2HPO4 and 20 mM NaH2PO4 adjusted to pH 6.5 containing 1 mg ml^−1 BSA at 37 °C unless otherwise stated. For 4MU-Neu5Ac, the progression of the reaction was monitored by the release of the MU using a 96-well plate reader (BMG Labtech, Ortenberg, Germany) using fluorescence with an excitation at 340 nm and an emission at 420 nm. For determining the optimal temperature, the assay was carried out in 20 mM PBS at pH 7.4. For determining the optimal pH, the assay was carried out at 37 °C using buffer made from 20 mM Na2HPO4 and 20 mM NaH2PO4 in varying proportions to obtain the desired pH. PNP release from PNP-Neu5Ac was monitored in a similar way measuring absorbance at 405 nm every 60 s. For 3′SL, the reaction was monitored by HPAEC-PAD. An aliquot of the reaction was removed from the main reaction volume at the reaction stopped by boiling for 20 min, the enzyme was then removed by centrifugation at 17,000g for 10 min and filtration with a 0.2-μm filter (Millipore, Billerica, USA). The sugars were separated by HPAEC with an isocratic gradient of 100 mM NaOH and 100 mM NaAC at 1 ml min^−1 on a CarboPac PA1 protected with a guard column and detected using PAD on a Dionex ICS5000 system (Thermo Scientific, Hemel Hempstead, UK). The column was cleaned with 10 ml of 500 mM NaOH and 500 mM NaAc, and the column was re-equilibrated with 100 mM NaOH and 100 mM NaAc. An internal standard of fucose was used to quantify the results. […]

R. gnavus ATCC 29149 = system: R. gnavus ATCC 29149; parameters: method as in PMID 24204617; conditions: cited from earlier work; for ability of the bacteria to grow on the substrate: R. gnavus ATCC 29149
[2] = Spontaneous interconversion of 2,7-anhydro-Neu5Ac and Neu5Ac by 1H NMR; type: physicochemical; conditions: up to 24 h at 37 °C
Method: The products of the reaction were thus further monitored by ^1H nuclear magnetic resonance (NMR). […] (Fig. 3). These peaks are characteristic of 2,7-anhydro-α-N-acetylneuraminic acid (2,7-anhydro-Neu5Ac) and arise from the protons in positions 6 and 7 (Fig. 3a). Peaks corresponding to 2,7-anhydro-Neu5Ac were observed when RgNanH was incubated in presence of 4MU-Neu5Ac (Fig. 3a) or 3′SL (Fig. 3b). […] The signals of 2,7-anhydro-Neu5Ac and their chemical shifts are shown in Supplementary Table 1. This product was absent in control experiments using A. muciniphila sialidases (AkmNan0625 and AkmNan1835) or in absence of enzyme, confirming the specificity of the enzymatic reaction (Supplementary Fig. 5).
Extracts (400 μl) were mixed with 200 μl of D2O and 20 μl of a solution of D2O containing 1 mM of TSP (sodium 3-(trimethylsilyl)-propionate-d4). Samples (500 μl) were transferred into a 5-mm NMR tube for spectral acquisition. The ^1H NMR spectra were recorded at 600 MHz on a Bruker Avance spectrometer (Bruker BioSpin GmbH, Rheinstetten, Germany) running Topspin 2.0 software, and were fitted with a cryoprobe and a 60-slot autosampler. Each ^1H NMR spectrum was acquired with 128 scans, a spectral width of 8,012.8 Hz, an acquisition time of 2.04 s and a relaxation delay of 2.0 s. […]

RgNanH [3] = biological target: T1, RgNanH; assay: Hydrolysis of sialic acid from glycoproteins monitored by 1H NMR; type: biochemical, Ruminococcus gnavus ATCC 29149; conditions: glycoprotein 1 mg ml^−1, 1 nM enzyme, 37 °C, pH 6.5, overnight
Method: The ability of RgNanH to hydrolyse sialic acid from glycoproteins was investigated by incubation of the enzyme with human α-1-acid glycoprotein (AGP) and fetuin (Fet) both of which are known to contain α2-3 sialyl linkages, while asialo-Fet was also included as a control.
For specificity tests against sialylated oligosaccharides (1 mM) and glycoproteins (1 mg ml^−1), 1 nM of enzyme was incubated with the substrate at 37 °C, pH 6.5, overnight.
Extracts (400 μl) were mixed with 200 μl of D2O and 20 μl of a solution of D2O containing 1 mM of TSP (sodium 3-(trimethylsilyl)-propionate-d4). Samples (500 μl) were transferred into a 5-mm NMR tube for spectral acquisition. The ^1H NMR spectra were recorded at 600 MHz on a Bruker Avance spectrometer (Bruker BioSpin GmbH, Rheinstetten, Germany) running Topspin 2.0 software, and were fitted with a cryoprobe and a 60-slot autosampler. Each ^1H NMR spectrum was acquired with 128 scans, a spectral width of 8,012.8 Hz, an acquisition time of 2.04 s and a relaxation delay of 2.0 s. The ‘noesypr1d' presaturation sequence was used to suppress the residual water signal with a low-power selective irradiation at the water frequency during the recycle delay and a mixing time of 100 ms. Spectra were transformed with a 0.3-Hz line broadening, manually phased, baseline corrected and referenced by setting the TSP methyl signal to 0 p.p.m.

Compound	Inhibition of RgNanH (RgNanH [1])	ability of the bacteria to grow on the substrate (R. gnavus ATCC 29149)	spontaneous conversion between 2,7-anhydro-Neu5Ac and Neu5Ac [2]	growth on sole carbon source (R. gnavus ATCC 29149; R. gnavus ATCC 29149 and E1)	activity of RgNanH against glycoprotein (2,7-anhydro-Neu5Ac peaks by 1H NMR) (RgNanH [3])	activity of RgNanH against glycoprotein (2,7-anhydro-Neu5Ac peaks by 1H NMR) (RgNanH [3]; listed as α-1-AGP)
OC[C@H]1O[C@@H](O[C@H]2[C@H](O)[C@@H](O)C(O)O[C@@H]2CO)[C@H](O)[C@@H](O)[C@H]1O (mixture of isomers) [lactose]	not inhibited	not				
CC(=O)N[C@H]1[C@H]2O[C@@](C(=O)O)(C[C@@H]1O)O[C@@H]2[C@H](O)CO [2,7-anhydro-Neu5Ac, 2,7-anhydro-α-N-acetylneuraminic acid]			no spontaneous conversion			
CC(=O)N[C@H]1[C@H]([C@H](O)[C@H](O)CO)OC(O)(C(=O)O)C[C@@H]1O (stereo partly drawn) [Neu5Ac, sialic acid]	not inhibited	not	no evidence of spontaneous conversion	could not grow		
AGP: human α-1-acid glycoprotein, known to contain α2-3 sialyl linkages					showed activity	substrates
